The text below walks through data of patent publication US20140243292A1, “SUBSITUTED 2-(CHROMAN-6-YLOXYL)-THIAZOLES AND THEIR USE AS PHARMACEUTICALS” (Sanofi, priority 2011, published 2014).

Structures are written as SMILES. pIC50: −log10 of the molar value. Where a name gives a salt, the structure may show the parent alone.

Assay [1] has as its target T1, human NCX1 (Homo sapiens, UniProt P32418).
T1 construct: expressed in transfected cells
As to the kind of experiment: NCX1 inhibition, forward mode (Ca2+ efflux out of cells), FLIPR calcium assay. The format is cell-based. The following applies: for inhibition at 10 µM: CHO cells stably expressing human NCX1, read-out: Inhibition in % at 10 μM, IC50 value not determined; for pIC50: CHO cells stably expressing human NCX1, read-out: NCX1fw IC50. From the text:
The sodium/calcium exchanger NCX1 can transport calcium ions and sodium ions through the cell membrane. The transport is an exchange of Ca^2+ and Na^+ in two directions depending on membrane potential and ion gradients. At the first direction, named “forward mode” or “calcium export mode”, Ca^2+ is transported out of the cell and Na^+ is transported into the cell. At the other direction, named “reverse mode” or “calcium import mode”, the transport directions are vice versa. The effect of the compounds of the invention on NCX1 was determined in CHO cells stably expressing human NCX1 (gene symbol SLC8A1; cf. WO 2009/115238). The assay is based on the monitoring of intracellular Ca^2+ concentrations using a calcium-sensitive fluorescence dye which is detected by means of a FLIPR device (Fluorimetric Imaging Plate Reader, Molecular Devices).
The assay is based on the monitoring of intracellular Ca^2+ concentrations using the PBX Calcium Assay Kit from BD (Becton, Dickinson and Company) with calcium indicator dye 51-9000177BKa (BD, 640177). CHO cells expressing NCX1 were loaded with the dye, and after a preincubation period with the test compound, Ionomycin (Calbiochem, 407950) was added. Ionomycin is an ionophor for Ca^2+ ions mediating an increase of intracellular Ca^2+ ions. Consequently, intracellular Ca^2+ ions are exchanged against extracellular Na^+ ions (Ca^2+ efflux, forward mode). The decrease of intracellular Ca^2+ ions was detected by measuring the fluorescence of the calcium indicator dye at a wavelength of 520 nm by a FLIPR device.
Briefly, similarly as for the reverse mode, for the forward mode transport assay 18000 cells per well were seeded into a 96 well microplate (Corning COSTAR 3904) and incubated overnight in culture medium (cf. above). A total volume of 100 μl medium per well was used. For the preparation of the FLIPR assay, the culture medium was removed from the plates and 100 μl of assay buffer (133.8 mM NaCl (Sigma, S5886); 4.7 mM KCl (Sigma, P3911); 1.25 mM MgCl2 (Merck, 1.05833.0250); 3.5 mM CaCl2(Merck, 1.02083.0250); 5 mM glucose (Sigma, G7021); 10 mM Hepes (Sigma, H4034); pH 7.4)) were added to each well in a washing step. Assay buffer was removed, and 100 μl of a solution of the test compound in assay buffer in different concentrations were added into the wells. Further, 100 μl of dye solution (0.09% (v/v) calcium indicator dye, 9.1% (v/v) signal enhancer (from PBX Calcium Assay Kit); in assay buffer) were added into each well. The plates were incubated in the dark at room temperature for 60 min. Meanwhile a 10 μM solution of Ionomycin in assay buffer (additionally containing 0.05% fetal calf serum (cf. above); 4° C.) was prepared and stored in the wells of a 96 well microplate (96 well microplate, polypropylene, U-shape (Greiner Bio-One, 650201)). The fluorescence monitoring was performed at 60 measuring points with measurement intervals of 2 sec. After the fifth measuring point, 50 μl of the Ionomycin solution were added to each well of the assay plate to give a final Ionomycin concentration of 2 μM. For the determination of the IC50 values the minimal fluorescence value was subtracted from the maximal fluorescence value for the fifteenth to fifty-fifth measuring points. The calculation of the IC50 values via the percentage inhibitions of Ca^2+ efflux out of cells (forward mode) effected by the test compound was performed in Biost@t Speed 2.0. “NCX1fw IC50” in Table 2 means the IC50 value for inhibition of NCX1 in forward mode (in μM (micromol/liter)).

The target in assay [2] is T1, human NCX1. The assay is described as follows: NCX1 inhibition, reverse mode (Ca2+ influx into cells), FLIPR Fluo-4 assay. In kind it is cell-based. The following applies: inhibition of NCX1 in reverse mode (Ca2+ influx into cells); read-out: NCX1rv IC50. The procedure, abridged: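 CHO cells stably expressing human NCX1 were loaded with 2 µM Fluo-4 AM for 80 min at room temperature, then preincubated with compound for 45 min at 16 °C in pH 7.4 HEPES buffer (3.5 mM CaCl2, 2.5 mM probenecid). Reverse-mode Ca2+ influx was triggered by 20 µM final gramicidin and read at 520 nm on FLIPR. IC50 came from % inhibition of max−min fluorescence.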

The test system of assay [3] is Sprague-Dawley rats. As to the kind of experiment: In vivo method for determining the effect on heart contractility (left ventricular dp/dtmax). The note with it: Rattus norvegicus, iv, read-out: Contractility increase (%). As to the method: Adult male Sprague-Dawley rats (Harlan Winkelmann, Borchen, Germany) weighing 340 to 370 g were anesthetized with pentobarbital (100 mg/kg i.p.) and ventilated with a mixture of oxygen (40%) and room air (60%) at a tidal volume of 1 ml/100 g at 60 breaths/min. Body temperature was maintained at 36.5±0.3° C. with a heating lamp and was monitored with a rectal thermo sensor. Systemic blood pressure was measured in the left carotid artery using a pressure transducer (Combitrans; B. Braun Melsungen AG, Melsungen, Germany) connected to a DC-bridge-amplifier (PLUGSYS/ADC Type 663; Harvard Apparatus GmbH, March-Hugstetten, Germany). The electrocardiogram was measured as lead II via subcutaneously placed electrodes connected to a Heart-Rate-Module ([…] Type 669; Harvard Apparatus GmbH, March-Hugstetten, Germany). A micro-tip catheter (2 French, SPR-320; Millar Instruments, Houston, Tex., USA) was placed via the right carotid artery into the left ventricle, and the left ventricular pressure (LVP) and the enddiastolic pressure (EDP) were continuously measured. Registration of the hemodynamic data was performed via an analog digital converter by a personal computer using Notocord software (HEM version 3.5). Left ventricular contractility (dp/dtmax) and relaxation (dp/dtmin) were calculated from the LVP signal. For intravenous administration of the test compounds, the left jugular vein was prepared and a PP-50 catheter was inserted. Test compounds were administered either by intravenous bolus injection or by intravenous infusion by means of an infusion pump (Unita; B. Braun Melsungen AG, Melsungen, Germany). […] In a typical experiment, several dosages of the test compound were administered subsequently at increasing doses. Statistical significance of the data obtained with drug vs. control experiments, in which solvent was administered, was evaluated with the 2-sided ANOVA test (program Everstat). Increases in left ventricular contractility (percent increase) by example compounds are given in Table 3 in comparison to control experiments in which solvent was administered.

As for `Cc1ccccc1[C@H]1CCc2cc(Oc3ncc(C(=O)NCCO)s3)ccc2O1` [Example 325, 2-((R)-2-o-Tolyl-chroman-6-yloxy)-thiazole-5-carboxylic acid (2-hydroxy-ethyl)-amide], the inhibition at 10 µM in assay [1] was 26%. In addition, the pIC50 in assay [2] is 6.70.

For the compound `Cc1ccccc1C1CCc2cc(Oc3nc(C)c(C(=O)NCCO)s3)ccc2O1` (stereo not drawn) [Example 335], the pIC50 was 6.05 in assay [1] and 6.52 in assay [2].

In the case of `Cc1ccccc1[C@@H]1CCc2cc(Oc3ncc(C(=O)NCCOP(=O)(O)O)s3)ccc2O1` [Example 345, Phosphoric acid mono-(2-{[2-((S)-2-o-tolyl-chroman-6-yloxy)-thiazole-5-carbonyl]-amino}-ethyl) ester disodium salt], the pIC50 in assay [1] was 5.52. In assay [3], the change in vivo at 0.03 mg/kg/min is 32% and the change in vivo at 0.1 mg/kg/min stood at 85%. Moreover, the pIC50 in assay [2] is 7.15.

For the compound `Cc1ccc(F)cc1C1CCc2cc(Oc3ncc(C(=O)N(C)C)s3)ccc2O1` (stereo not drawn) [Example 348], the pIC50 in assay [1] is 6.10; in assay [2], 6.19.

On to `O=C(NCCN1CCNC1=O)c1csc(Oc2ccc3c(c2)CC[C@@H](c2ccccc2)O3)n1` [Example 352], for which the inhibition at 10 µM in assay [1] was 31%. The pIC50 in assay [2] is 6.68.
